{"source": "paper PMC8762745", "about": "(ACS Medicinal Chemistry Letters, 2021)", "target": "T1, human TAAR1 receptor (Homo sapiens, UniProt Q96RJ0)", "T1 sequence (Q96RJ0 1-339)": "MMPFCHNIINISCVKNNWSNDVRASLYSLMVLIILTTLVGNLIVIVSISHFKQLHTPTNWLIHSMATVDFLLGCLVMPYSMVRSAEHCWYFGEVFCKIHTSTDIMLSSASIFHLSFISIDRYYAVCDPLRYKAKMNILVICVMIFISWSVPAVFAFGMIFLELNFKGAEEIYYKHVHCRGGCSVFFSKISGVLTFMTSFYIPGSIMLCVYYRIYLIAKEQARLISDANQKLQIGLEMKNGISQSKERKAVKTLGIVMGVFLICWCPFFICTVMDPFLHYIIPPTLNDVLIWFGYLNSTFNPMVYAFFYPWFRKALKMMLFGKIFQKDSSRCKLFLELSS", "experiment": "Human TAAR1 agonist assay", "settings": "for fold less active for TAAR1 than β-PEA (2): EC50 ratio versus β-PEA (2); for fold less potent for TAAR1 than racemic ulotaront 20: EC50 ratio versus racemic ulotaront 20", "data": [{"smiles": "NCCc1c[nH]c2ccccc12", "note": "[compound 10, tryptamine, reference compound]", "values": [{"measurement": "fold less active for TAAR1 than β-PEA (2)", "value": "about 150 fold"}]}, {"smiles": "NC[C@@H]1OCCc2ccsc21", "note": "[compound 22]", "values": [{"measurement": "fold more potent for TAAR1 than ulotaront", "value": "about 11 fold"}]}, {"smiles": "CNCC1OCCCc2ccsc21", "note": "(stereo not shown) [compound 26]", "values": [{"measurement": "fold less potent for TAAR1 than racemic ulotaront 20", "value": "approximately 6 fold"}]}, {"smiles": "CNCCc1ccccc1", "note": "[compound 3, N-methylphenethylamine, reference compound]", "values": [{"measurement": "fold less active for TAAR1 than β-PEA (2)", "value": "approximately 10 fold"}]}, {"smiles": "CNC[C@@H]1OCCc2sccc21", "note": "[compound 29]", "values": [{"measurement": "fold less potent for TAAR1 than ulotaront", "value": 3, "unit": "fold"}]}, {"smiles": "NCCc1cccc(O)c1", "note": "[compound 5, m-tyramine, reference compound]", "values": [{"measurement": "fold less active for TAAR1 than β-PEA (2)", "value": "~23", "unit": "fold"}]}, {"smiles": "NCCc1ccc(O)cc1", "note": "[compound 4, p-tyramine, reference compound]", "values": [{"measurement": "fold less active for TAAR1 than β-PEA (2)", "value": "about 5 fold"}]}, {"smiles": "NC[C@H](O)c1ccc(O)cc1", "note": "[6a, (−)-octopamine, reference compound]", "values": [{"measurement": "fold less active for TAAR1 than p-tyramine (4)", "value": 21, "unit": "fold"}]}, {"smiles": "NCC1OCCCc2ccsc21", "note": "(stereo not shown) [compound 27]", "values": [{"measurement": "fold more potent for TAAR1 compared to 26", "setting": "EC50 ratio versus 26", "value": "about 5 fold"}]}, {"smiles": "CNCC1OCCc2cscc21", "note": "(stereo not shown) [compound 28]", "values": [{"measurement": "fold less potent for TAAR1 than racemic ulotaront 20", "value": "~6", "unit": "fold"}]}, {"smiles": "NCC[C@@H]1OCCc2ccsc21", "note": "[compound 25]", "values": [{"measurement": "fold reduced TAAR1 activity compared to N-demethylated analogue 22", "setting": "EC50 ratio versus 22", "value": 67, "unit": "fold"}]}, {"smiles": "c1cc2c(s1)[C@H](CN1CCCC1)OCC2", "note": "[compound 24]", "values": [{"measurement": "fold less potent for TAAR1 than ulotaront", "value": 189, "unit": "fold"}]}, {"smiles": "CNC[C@]1(C)OCCc2ccsc21", "note": "[compound 21]", "values": [{"measurement": "fold less potent for TAAR1 than ulotaront", "value": "> 1000", "unit": "fold"}]}, {"smiles": "CNC[C@H](O)c1ccc(O)cc1", "note": "[7a, (−)-synephrine, reference compound]", "values": [{"measurement": "fold reduced TAAR1 activity compared to 6a", "setting": "EC50 ratio versus (−)-octopamine 6a", "value": "approximately 3 fold"}]}, {"smiles": "NC[C@@H](O)c1ccc(O)cc1", "note": "[6b, (+)-octopamine, reference compound]", "values": [{"measurement": "fold less active for TAAR1 than p-tyramine (4)", "value": 54, "unit": "fold"}]}, {"smiles": "NCCc1cccs1", "note": "[compound 30, thiophen-2-ylethanamine]", "values": [{"measurement": "fold more potent for TAAR1 than the other ring opened thiophene (31)", "setting": "EC50 ratio versus 31", "value": "approximately 3 fold"}]}]}
